Here are results for 5 compounds from patent US7368453B2, “Quinazolinone compounds with reduced bioaccumulation” (Chiron Corporation, priority 2003, dated 2008).

Where two headings read alike, the source gives them in different places.

This data set can be described thus: Tissue half-life (t1/2) and Cmax in plasma, brain, kidney and liver after oral administration to CD-1 mice. The class given is in vivo, mouse. Conditions: male, mouse. Here is the method:
In vivo studies were conducted to observe the effect of the compounds of the invention in the subject animal. Male CD-1 mice, body weight of 20 grams at arrival, were used in these studies. Mice were given 30 mg/kg of compound in HPMC/Tween solution or suspension via oral gavage. Plasma, brain, and liver samples were collected at time periods of 1, 2, 4, 8, and 24 hours post dosing. One mouse was used per time point. Thus, a total of 5 mice were used for each compound tested. For sample collection, mice were euthanized with CO2. Blood samples were taken by cardiac puncture and kept on ice. Brain and liver samples were collected immediately after bleeding and the samples were kept on dry ice. For calculation of tissue half-lives (t1/2s), the terminal rate constant k was estimated by the absolute value of the slope of a log-linear regression of the terminal phase of the tissue concentration-time profile. The tissue half-life t1/2 is ln(2)/k.
The following table includes t1/2 data for plasma, brain, kidney, and liver obtained after oral administration.
Tissue Half-Life Data for Various Quinazolinone Compounds (PO)

Where [1] appears, read: brain t1/2, 30 mg/kg oral gavage (PO), read-out: Half-Lives (h) Brain (converted).
The mark [2] stands for this setting: kidney t1/2, 30 mg/kg oral gavage (PO), read-out: Half-Lives (h) Kidney (converted).
The mark [3] stands for this setting: liver t1/2, 30 mg/kg oral gavage (PO), read-out: Half-Lives (h) Liver (converted).
Where [4] appears, read: plasma t1/2, 30 mg/kg oral gavage (PO), read-out: Half-Lives (h) Plasma (converted).

On to `COc1ccc(CCn2c(-c3cnccn3)nc3cc(NC(=N[C@H]4C[C@H]5C[C@@H]([C@@H]4C)C5(C)C)N4CCN[C@@H](CF)C4)ccc3c2=O)c(F)c1` [Example 251, (3R)-N-{3-[2-(2-fluoro-4-methoxyphenyl)ethyl]-4-oxo-2-pyrazin-2-yl-3,4-dihydroquinazolin-7-yl}-3-(fluoromethyl)-N′-[(1S,2S,3S,5R)-2,6,6-trimethylbicyclo[3.1.1]hept-3-yl]piperazine-1-carboximidamide], for which the half-life is 5.4 h under setting [1], 8.6 h under setting [2], 6.8 h under setting [3] and 4 h under setting [4].

Regarding `COc1ccc(CCn2c(N3CCOCC3)nc3cc(NC(=N[C@H]4C[C@H]5C[C@@H]([C@@H]4C)C5(C)C)N4CCN[C@@H](CF)C4)ccc3c2=O)c(F)c1` [Example 253], the half-life reads like this: under setting [1], 27 h; under setting [2], 14 h; under setting [3], 6.9 h; under setting [4], 7.3 h.

Turning to `COc1ccc(CCn2c(CN3CCN(C)CC3)nc3cc(NC(=N[C@H]4C[C@H]5C[C@@H]([C@@H]4C)C5(C)C)N4CC(=O)N[C@@H](C)C4)ccc3c2=O)c(F)c1` [Example 239, (3S)-N-{3-[2-(2-fluoro-4-methoxyphenyl)ethyl]-2-[(4-methylpiperazin-1-yl)methyl]-4-oxo-3,4-dihydroquinazolin-7-yl}-3-methyl-5-oxo-N-[(1S,2S,3S,5R)-2,6,6-trimethylbicyclo[3.1.1]hept-3-yl]piperazine-1-carboximidamide], the half-life reads like this: under setting [1], 3.6 h; under setting [4], 4.5 h.

Regarding `COc1ccc(CCn2c(NC3CC3)nc3cc(NC(=N[C@H]4C[C@H]5C[C@@H]([C@@H]4C)C5(C)C)N4CC(=O)N[C@@H](C)C4)ccc3c2=O)c(F)c1` [Example 224, (3S)-N-{2-(cyclopropylamino)-3-[2-(2-fluoro-4-methoxyphenyl)ethyl]-4-oxo-3,4-dihydroquinazolin-7-yl}-3-methyl-5-oxo-N′-[(1S,2S,3S,5R)-2,6,6-trimethylbicyclo[3.1.1]hept-3-yl]piperazine-1-carboximidamide], the half-life is, setting by setting: under setting [1], 10 h; under setting [3], 3.1 h; under setting [4], 3 h.

Take `COc1ccc(CCn2c(N3CCOCC3)nc3cc(NC(=N[C@H]4C[C@H]5C[C@@H]([C@@H]4C)C5(C)C)N4CC(=O)N[C@@H](C)C4)ccc3c2=O)c(F)c1` [Example 221, (3S)-N-{3-[2-(2-fluoro-4-methoxyphenyl)ethyl]-2-morpholin-4-yl-4-oxo-3,4-dihydroquinazolin-7-yl}-3-methyl-5-oxo-N′-[(1S,2S,3S,5R)-2,6,6-trimethylbicyclo[3.1.1]hept-3-yl]piperazine-1-carboximidamide]: the half-life was 6.9 h under setting [1], 2.9 h under setting [3] and 2.9 h under setting [4].
